Experimental data as given in patent US11570992B2, “Bicyclic compounds” (BASF SE, priority 2016, dated 2023).

Legend:
Type in all cases: in vivo
[1] = test system: vetch aphid (Megoura viciae); assay: Vetch aphid test, broad bean leaf disks in 24-well plates; conditions: foliar, 120 h, 5 days, read-out: mortality in comparison with untreated controls
Protocol: Vetch Aphid (Megoura viciae)
For evaluating control of vetch aphid (Megoura viciae) through contact or systemic means the test unit consisted of 24-well-microtiter plates containing broad bean leaf disks.
The compounds were formulated using a solution containing 75% v/v water and 25% v/v DMSO. Different concentrations of formulated compounds were sprayed onto the leaf disks at 2.5 μl, using a custom built micro atomizer, at two replications.
After application, the leaf disks were air-dried and 5-8 adult aphids placed on the leaf disks inside the microtiter plate wells. The aphids were then allowed to suck on the treated leaf disks and incubated at about 23±1° C. and about 50±5% relative humidity for 5 days. Aphid mortality and fecundity was then visually assessed.

[2] = test system: Diamond Back Moth (Plutella xylostella); assay: Diamond back moth test, dipped cabbage leaves; conditions: 3rd instar larvae, 72 hours after treatment, read-out: mortality in comparison with untreated controls
Protocol: Diamond Back Moth (Plutella xylostella)
The active compound is dissolved at the desired concentration in a mixture of 1:1 (vol:vol) distilled water:acetone. Surfactant (Kinetic® HV) is added at a rate of 0.01% (vol/vol). The test solution is prepared at the day of use.
Leaves of cabbage were dipped in test solution and air-dried. Treated leaves were placed in petri dishes lined with moist filter paper and inoculated with ten 3rd instar larvae. Mortality was recorded 72 hours after treatment. Feeding damages were also recorded using a scale of 0-100%.

[3] = test system: boll weevil (Anthonomus grandis); assay: Boll weevil test, 96-well microtiter plates with insect diet and eggs; conditions: 120 h, egg and larval mortality after 5 days, read-out: mortality in comparison with untreated controls
Protocol: Boll Weevil (Anthonomus gandis)
For evaluating control of boll weevil (Anthonomus grandis) the test unit consisted of 96-well-microtiter plates containing an insect diet and 5-10 A. grandis eggs.
The compounds were formulated using a solution containing 75% v/v water and 25% v/v DMSO. Different concentrations of formulated compounds were sprayed onto the insect diet at 5 μl, using a custom built micro atomizer, at two replications.
After application, microtiter plates were incubated at about 25±1° C. and about 75±5% relative humidity for 5 days. Egg and larval mortality was then visually assessed.

CCS(=O)(=O)c1cccnc1-c1nc2cc(C(F)(F)F)cc(=O)n2n1C [Example C-4, 2-(3-ethylsulfonyl-2-pyridyl)-3-methyl-7-(trifluoromethyl)-[1,2,4]triazolo[1,5-a]pyridin-5-one]
mortality at 800 ppm [1]: > 75%
mortality at 300 ppm [2]: > 75%

Cn1c(C(F)(F)F)cc2nc(-c3ccccc3Cl)cn2c1=O [Example C-1, 2-(2-chlorophenyl)-6-methyl-7-(trifluoromethyl)imidazo[1,2-c]pyrimidin-5-one]
mortality at 800 ppm [3]: > 75%
